Test: Granulometry: particle size by laser diffraction (HELOS SYMPATEC granulometer)
Type: physicochemical
Details: after sieving on a 500 μm grid
Procedure: The size of the particles is determined by laser diffraction using a HELOS SYMPATEC® model granulometer.

- diameter of 10% of the particles (10% of the particles below this diameter): < 77 microns
- diameter of 50% of the particles (50% of the particles below this diameter): < 107 microns
- diameter of 90% of the particles (90% of the particles below this diameter): < 166 microns
SMILES: CC[C@H]1OC(=O)[C@H](C)C(=O)[C@H](C)[C@@H](O[C@@H]2O[C@H](C)C[C@H](N(C)C)[C@H]2O)[C@](C)(O)C[C@@H](C)C(=O)[C@H](C)[C@H]2N(CCCCn3cnc(-c4cccnc4)c3)C(=O)O[C@]12C [spherical agglomerates of telithromycin, 11,12-dideoxy-3-de((2,6-dideoxy-3-C-methyl-3-O-methyl-alpha-L-ribohexopyranosyl)oxy)-6-O-methyl-3-oxo-12,11-(oxycarbonyl((4-(4-(3-pyridinyl)-1H-imidazol-1-yl)butyl)imino))-erythromycin]
